The results in this text go back to publication PMC13252604, “First Generation Proteolysis Targeting Chimeras (PROTACs) for the Treatment of Progeria” (Advanced Science, 2026).

Data set [1] deals with HGADFN167 Lmna^G608G/G608G fibroblasts. Nature of the data set: RT-qPCR of senescence markers in human progeroid cells. Particulars: HGADFN167, 5 µM, 20 days. Format: cell-based. An excerpt: FIGURE 6 (A) Representative cropped immunoblots and progerin quantification in human Lmna^G608G/G608G fibroblasts. MW, molecular weight (in kDa) markers. […] (B) PROTAC 2 increases cell proliferation (upper panels) and decreases the number of misshapen nuclei (lower panels). White arrows highlight selected misshapen nuclei. (C) PROTAC 2 decreases senescence‐associated β‐galactosidase (SA‐βgal) activity, interleukin (IL) 6, p16 and p21 senescent markers. Bar graphs show mean±sem of 2 (SA‐βgal and p21) or 3 (IL‐6 and p16) independent experiments performed in triplicate. (D) PROTAC 2 decreases phosphorylated histone 2AX (pH2AX) and increases trimethylated histone 3 (H3K9Me3) levels. (E) PROTAC 2 increases the oxygen consumption rate (OCR), ATP production and the number of healthy mitochondria in human progeroid cells. Bar graphs show mean±sem of 2 independent experiments performed in duplicate. […] Data were analysed using one‐way ANOVA followed by Dunnett's post–hoc test vs vehicle (panel A) or vs G608G cells (panels B‐E). ^*, p < 0.05; ^**, p < 0.01; ^***, p < 0.001; ^****, p < 0.0001. […]
ferrocyanide, 0.6 mL 5 M NaCl, 0.2 mL 0.2 M MgCl2, (all from Sigma Aldrich) and 6.2 mL of deionized water in a total volume of 20 mL] in the dark in a humidified incubator at 37 °C for 24 h without CO2 supply. Then, an equal volume of the supernatant of each well was transferred to a new 96-well plate for fluorescence measurement. The resultant production of fluorescein was measured using a FluoStar Optima instrument (BMG Labtech) with an excitation of 485 nm and emission at 535 nm. […]
Total RNA was extracted by RNAeasy Mini Kit (Qiagen) according to the manufacturer instructions and subsequently quantified using the NanoPhotometer N60 (Implen). […] Quantitative real-time PCR was run in the QuantStudio 7FLEX (Applied Biosystems) system and results were normalized according to β-actin quantification.
Specific `in-house´ designed primers (see sequence below) were purchased from Metabion. The threshold cycle (Ct) was determined, and the relative gene expression was […]

A short description of data set [2]: Stability in cell culture. Format: in vitro ADME. The source says: TABLE 1 Pharmacokinetic parameters of PROTAC 2. | column: Stability (hours) ^b / Cell culture

Regarding `CC1(C)Oc2cc3oc(=O)ccc3cc2C[C@@H]1OC(=O)CCCCCNc1cccc2c1C(=O)N(C1CCC(=O)NC1=O)C2=O` (stereo partly shown) [compound 2], in data set [1], the “IL‐6 senescent marker” value was “significantly reduced”, the p16 senescent marker entry is listed as “significantly reduced” and the p21 senescent marker result is “significantly reduced”. The “Stability (hours) Cell culture” value in data set [2] is above 24 h.
